Patent US12558386B2, “Methods and compositions to modulate antibiotic resistance and gastrointestinal microbiota” (OHIO STATE INNOVATION FOUNDATION, priority 2018, dated 2026)
Values after ≈ are worked out from the molar mass of the structure shown. Where two headings read alike, the source gives them in different places.

What was measured:
E. coli CA-1 = assay: MIC assessment (TREK Sensititre); type: cell-based, Escherichia coli
Source text: (§1) Bacterial strains. Multiple Amp^r strains from feces of broiler chickens without antibiotic treatment were recovered on Columbia blood Agar base (Becton, […] Dickinson and Company, Franklin Lakes, NJ) supplemented with 5% defibrinated sheep blood (Thermo Scientific™, Grand Island, NY).
(§2) Minimum inhibition concertation (MIC) assessment. A TREK Sensititre diagnostic system (Thermo scientific, Oakwood Village, OH, USA) was used to assess the AR phenotype and MIC of isolated strains. Protocols to use this system can be found on www.trekds.com. Cation-adjusted Mueller Hinton Broth (Becton, Dickinson and Company, MD, USA) was used as basic medium.

E. coli CA-4 = assay: MIC assessment (TREK Sensititre); type: cell-based, Escherichia coli
Method: as §1, with “NY). The strains were maintained in Columbia broth (Becton Dickinson and Company, Franklin Lakes, NJ), and propagated by aerobic growth at 37° C., and further subjected to strain identification and Minimum Inhibition Concentration (MIC) assessments.” for “NY).”
as §2

E. coli CA-20 = assay: MIC assessment (TREK Sensititre); type: cell-based, Escherichia coli
Method: as §1, with “NY). The strains were maintained in Columbia broth (Becton Dickinson and Company, Franklin Lakes, NJ), and propagated by aerobic growth at 37° C., and further subjected to strain identification and Minimum Inhibition Concentration (MIC) assessments.” for “NY).”
as §2

[1] = test system: Lactobacillus crispatus CG-12; assay: MIC assessment (TREK Sensititre); type: cell-based
Method: (§3) Multiple commensal bacterial strains from chicken feces were recovered from Columbia blood Agar base (Becton, […] Dickinson and Company, Franklin Lakes, NJ) supplemented with 5% defibrinated sheep blood (Thermo Scientific™, Grand Island, NY), and maintained in Columbia broth (Becton Dickinson and Company, Franklin Lakes, NJ) and propagated by anaerobic growth at 37° C. The strains were subjected to antibiotic susceptibility assessment followed by strain identification.
as §2

Three Amp^r E. coli = assay: MIC assessment, summary for the three strains; type: cell-based, Escherichia coli; conditions: E. coli CA-1, CA-4 and CA-20 together
Method: as §1, with “NY). The strains were maintained in Columbia broth (Becton Dickinson and Company, Franklin Lakes, NJ), and propagated by aerobic growth at 37° C., and further subjected to strain identification and Minimum Inhibition Concentration (MIC) assessments.” for “NY).”
as §2

CG-12 = assay: Screening of antibiotic susceptible commensal strains on antibiotic agar plates; type: cell-based, Lactobacillus crispatus; conditions: 16 μg/mL tetracycline, 100 μg/mL erythromycin, 32 μg/mL ampicillin, 152 μg/mL sulfamethoxazole with 8 μg/mL trimethoprim
Method: as §3
Screening of antibiotic susceptible commensal strains. Recovered commensal strain isolates (over 1000 colonies) were spotted on Columbia broth (Becton, […] Dickinson and Company, Franklin Lakes, NJ) agar plates containing each of the four antibiotics for rapid assessment of phenotypic resistance profiles. Screened antibiotics included 16 μg/mL tetracycline (Sigma-Aldrich, St. Louis, MO, USA), 100 μg/mL erythromycin (Fisher Scientific, Waltham, MA, USA), 32 μg/mL ampicillin (Sigma-Aldrich), and 152 μg/mL sulfamethoxazole (Sigma-Aldrich) with 8 μg/mL trimethoprim (Sigma-Aldrich).

[2] = test system: poultry fecal/gut microbiota (Proteobacteria, ESBL E. coli); assay: Chicken study, metagenomics assessment #1 of pooled feces (FIG. 5); type: in vivo, chickens; conditions: Tween 80 treatment (Lanes 6, 8)
Source text: FIGS. 5A and 5B show the impact of probiotic treatment on bacterial population in pooled feces of chickens. FIG. 5A) Phylum level; FIG. 5B) Class level. The treatments include Lane 1 (no, cocktail, no): no ESBL E. coli inoculation for 4 days, then inoculated with probiotic cocktail but no Tween 80; Lane 2 (no; no, no): no E. coli, no probiotics, no Tween 80; Lane 3: (probiotics, E. coli, no): probiotic cocktail for 4 days, followed by E. coli, but no Tween 80); Lane 4 (Yes, CG12, no): E. coli for 4 days, followed by Lb. crispatus (WZ12) for 4 days but no Tween 80; Lane 5 (yes, cocktail, no): E. coli for 4 days, followed by probiotic cocktail for 4 days, no Tween; Lane 6 ((yes, cocktail, yes): E. coli for 4 days, followed by probiotic cocktail for 4 days, with Tween 80; Lane 7 (Yes, no, no): E. coli for 4 days, saline for 4 days (no probiotics no Tween); Lane 8 (yes, no, yes): ESBL E. coli for 4 days, no probiotics but with Tween 80 for 4 days.
Animal Studies. The probiotics as disclosed herein were applied to chickens raised in a poultry facility, with the aim to examine the effectiveness of the treatment phenotypically and genetically (fecal microbiota) and physiologically (chickens); and to adjust receipt and procedure of feeding if necessary.
Treatments effective in modulating gut microbiota. […]

[3] = Escherichia coli, CA1, E. coli CA-1, read-out: MIC
[4] = Escherichia coli, CA4, E. coli CA-4, read-out: MIC
[5] = Escherichia coli, CA20, E. coli CA-20, read-out: MIC
[6] = Lactobacillus crispatus, CG12, L. crispatus CG-12, read-out: MIC

For `CO/N=C(\C(=O)N[C@@H]1C(=O)N2C(C(=O)O)=C(CSc3nc(=O)c(=O)[nH]n3C)CS[C@H]12)c1csc(N)n1` [AXO, ceftriaxone], the MIC (E. coli CA-1; [3]) was less than 8 µg/mL, the MIC (E. coli CA-4; [4]) was less than 8 µg/mL and the MIC (E. coli CA-20; [5]) was 16 µg/mL (≈ 28.9 µM). The “resistance phenotype from MIC, in words” value (E. coli CA-20; only E. coli CA-20) was “some resistant” and the MIC [1, 6] was less than 8 µg/mL.

For `O=C(O)c1cn(C2CC2)c2cc(N3CCNCC3)c(F)cc2c1=O` [CIP, ciprofloxacin], the “resistance phenotype from MIC, in words” value ([1]; L. crispatus CG-12) was “resistant” and the MIC [1, 6] was greater than 2 µg/mL.

Molecule `CCC[C@@H]1C[C@@H](C(=O)N[C@@H]([C@H]2O[C@H](SC)[C@H](O)[C@@H](O)[C@H]2O)[C@H](C)Cl)N(C)C1` [CLI, clindamycin] has an MIC (E. coli CA-1; [3]) greater than 2 µg/mL, an MIC (E. coli CA-4; [4]) greater than 2 µg/mL and an MIC (E. coli CA-20; [5]) greater than 2 µg/mL. It also gave an MIC [1, 6] of less than 0.12 µg/mL.

With `CCCCCCCCCC(=O)N[C@@H](Cc1c[nH]c2ccccc12)C(=O)N[C@H](CC(N)=O)C(=O)N[C@@H](CC(=O)O)C(=O)N[C@@H]1C(=O)NCC(=O)N[C@@H](CCCN)C(=O)N[C@@H](CC(=O)O)C(=O)N[C@H](C)C(=O)N[C@@H](CC(=O)O)C(=O)NCC(=O)N[C@H](CO)C(=O)N[C@@H]([C@H](C)CC(=O)O)C(=O)N[C@@H](CC(=O)c2ccccc2N)C(=O)O[C@@H]1C` [DAP, daptomycin] the MIC (E. coli CA-1; [3]) was greater than 8 µg/mL, the MIC (E. coli CA-4; [4]) was greater than 8 µg/mL and the MIC (E. coli CA-20; [5]) was greater than 8 µg/mL. The “resistance phenotype from MIC, in words” value (Three Amp^r E. coli) was “resistant”, the “resistance phenotype from MIC, in words” value ([1]; L. crispatus CG-12) was “resistant” and the MIC [1, 6] was 4 µg/mL (≈ 2.47 µM).

With `CC[C@H]1OC(=O)[C@H](C)[C@@H](O[C@H]2C[C@@](C)(OC)[C@@H](O)[C@H](C)O2)[C@H](C)[C@@H](O[C@@H]2O[C@H](C)C[C@H](N(C)C)[C@H]2O)[C@](C)(O)C[C@@H](C)C(=O)[C@H](C)[C@@H](O)[C@]1(C)O` [ERY, erythromycin] the MIC (E. coli CA-1; [3]) was greater than 4 µg/mL, the “phenotypic susceptibility on antibiotic agar plates” value (CG-12) was “susceptible” and the MIC (E. coli CA-4; [4]) was greater than 4 µg/mL. For the same molecule, the MIC (E. coli CA-20; [5]) was greater than 4 µg/mL, the “resistance phenotype from MIC, in words” value (Three Amp^r E. coli) was “resistant” and the MIC [1, 6] was less than 0.25 µg/mL.

For `COc1c(N2CCNC(C)C2)c(F)cc2c(=O)c(C(=O)O)cn(C3CC3)c12` (stereo not drawn) [GAT, gatifloxacin], the MIC (E. coli CA-1; [3]) was less than 1 µg/mL, the MIC (E. coli CA-4; [4]) was less than 1 µg/mL and the MIC (E. coli CA-20; [5]) was less than 1 µg/mL. The “resistance phenotype from MIC, in words” value ([1]; L. crispatus CG-12) was “resistant” and the MIC [1, 6] was 4 µg/mL (≈ 10.7 µM).

`C[C@H]1COc2c(N3CCN(C)CC3)c(F)cc3c(=O)c(C(=O)O)cn1c23` [LEVO, levofloxacin] was tested, and the MIC (E. coli CA-1; [3]) was less than 0.25 µg/mL, the MIC (E. coli CA-4; [4]) was less than 0.25 µg/mL and the MIC (E. coli CA-20; [5]) was less than 0.25 µg/mL. The MIC [1, 6] was greater than 8 µg/mL.

`CC(=O)NC[C@H]1CN(c2ccc(N3CCOCC3)c(F)c2)C(=O)O1` [LZD, linezolid] showed an MIC (E. coli CA-1; [3]) greater than 8 µg/mL, an MIC (E. coli CA-4; [4]) greater than 8 µg/mL and an MIC (E. coli CA-20; [5]) greater than 8 µg/mL. The “resistance phenotype from MIC, in words” value (Three Amp^r E. coli) was “resistant” and the MIC [1, 6] was 2 µg/mL (≈ 5.93 µM).

Molecule `CO[C@H]1/C=C/O[C@@]2(C)Oc3c(C)c(O)c4c(O)c(c(/C=N/N5CCN(C)CC5)c(O)c4c3C2=O)NC(=O)/C(C)=C\C=C\[C@H](C)[C@H](O)[C@@H](C)[C@@H](O)[C@@H](C)[C@H](OC(C)=O)[C@@H]1C` [RIF, rifampin] has an MIC (E. coli CA-1; [3]) of 4 µg/mL (≈ 4.86 µM), an MIC (E. coli CA-4; [4]) greater than 4 µg/mL and an MIC (E. coli CA-20; [5]) of 4 µg/mL (≈ 4.86 µM). The MIC [1, 6] was 1 µg/mL (≈ 1.22 µM).

With `[H]/N=C(/N)N[C@H]1[C@H](O)[C@@H](O)[C@H](O[C@@H]2O[C@@H](C)[C@](O)(C=O)[C@H]2O[C@@H]2O[C@@H](CO)[C@H](O)[C@@H](O)[C@@H]2NC)[C@@H](N/C(N)=N\[H])[C@@H]1O` [STR, streptomycin] the MIC (E. coli CA-1; [3]) was less than 1000 µg/mL, the MIC (E. coli CA-4; [4]) was less than 1000 µg/mL and the MIC (E. coli CA-20; [5]) was less than 1000 µg/mL. For the same molecule, the MIC [1, 6] was less than 1000 µg/mL.

`CN(C)[C@@H]1C(O)=C(C(N)=O)C(=O)[C@@]2(O)C(O)=C3C(=O)c4c(O)cccc4[C@@](C)(O)[C@H]3C[C@@H]12` [TET, tetracycline] gave an MIC (E. coli CA-1; [3]) of less than 2 µg/mL, an MIC (E. coli CA-4; [4]) of less than 2 µg/mL and an MIC (E. coli CA-20; [5]) of less than 2 µg/mL. The MIC [1, 6] was less than 2 µg/mL.

With `CCCCCCCC/C=C\CCCCCCCC(=O)OCCOCC(OCCO)C1OCC(OCCO)C1OCCO` (stereo not drawn) [Tween 80] the “effect on fecal microbiota” value [2] was “assisted the colonization of Proteobacteria but not the Firmicutes”.

For `CN[C@H](CC(C)C)C(=O)N[C@H]1C(=O)N[C@@H](CC(N)=O)C(=O)N[C@H]2C(=O)N[C@H]3C(=O)N[C@H](C(=O)N[C@H](C(=O)O)c4cc(O)cc(O)c4-c4cc3ccc4O)[C@H](O)c3ccc(c(Cl)c3)Oc3cc2cc(c3O[C@@H]2O[C@H](CO)[C@@H](O)[C@H](O)[C@H]2O[C@H]2C[C@](C)(N)[C@H](O)[C@H](C)O2)Oc2ccc(cc2Cl)[C@H]1O` [VAN, vancomycin], the MIC (E. coli CA-1; Escherichia coli, CA1) was greater than 128 µg/mL, the MIC (E. coli CA-4; Escherichia coli, CA4) was greater than 128 µg/mL and the MIC (E. coli CA-20; Escherichia coli, CA20) was greater than 128 µg/mL. For the same molecule, the “resistance phenotype from MIC, in words” value (Three Amp^r E. coli) was “resistant” and the MIC ([1]; Lactobacillus crispatus, CG12) was less than 1 µg/mL.

For gentamicin, the MIC (E. coli CA-1; E. coli CA-1) was 4 µg/mL, the MIC (E. coli CA-4; E. coli CA-4) was 4 µg/mL and the MIC (E. coli CA-20; E. coli CA-20) was 8 µg/mL. It also gave an MIC ([1]; L. crispatus CG-12) of 16 µg/mL.

For oxacillin + 2% NaC [OXA+], the MIC (E. coli CA-1; E. coli CA-1) was greater than 8 µg/mL, the MIC (E. coli CA-4; E. coli CA-4) was greater than 8 µg/mL and the MIC (E. coli CA-20; E. coli CA-20) was 8 µg/mL. For the same molecule, the “resistance phenotype from MIC, in words” value (Three Amp^r E. coli) was “high resistance” and the MIC ([1]; L. crispatus CG-12) was less than 0.25 µg/mL.

In the case of penicillin, the MIC (E. coli CA-1; E. coli CA-1) is reported as greater than 8 µg/mL, the MIC (E. coli CA-4; E. coli CA-4) is reported as greater than 8 µg/mL and the MIC (E. coli CA-20; E. coli CA-20) is reported as greater than 8 µg/mL. The “resistance phenotype from MIC, in words” value (Three Amp^r E. coli) was “high resistance” and the MIC ([1]; L. crispatus CG-12) was 0.5 µg/mL.

quinupristin/dalfopristin [SYN] was tested, and the MIC (E. coli CA-1; E. coli CA-1) was greater than 4 µg/mL, the MIC (E. coli CA-4; E. coli CA-4) was greater than 4 µg/mL and the MIC (E. coli CA-20; E. coli CA-20) was greater than 4 µg/mL. It also gave an MIC ([1]; L. crispatus CG-12) of 0.25 µg/mL.

With sulfamethoxazole/trimethoprim [SXT] the “phenotypic susceptibility on antibiotic agar plates” value (CG-12) was “susceptible” and the MIC ([1]; L. crispatus CG-12) was 2/38.
